Test results taken from patent US10723741B1, “DNA polymerase IIIC inhibitors and use thereof” (Acurx Pharmaceuticals, LLC, priority 2018, dated 2020).
≈ marks a conversion by molar mass, not a printed value. Where a name gives a salt, the structure may show the parent alone. Read-outs that look alike come from different tables or passages of the source.

What was measured:
Format in all cases: cell-based
[1] = system: Staphylococcus aureus NRS384 (MRSA); test: Broth microdilution MIC, S. aureus NRS384 (MRSA); set-up: MIC NRS 384 (MRSA): unit not given here; conditions: broth microdilution, 37° C., 20 hours; for MIC: Staphylococcus aureus, read-out: MIC NRS 384 (MRSA)
Procedure, shortened: (§1)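 Two-fold dilutions from 64 to 0.0625 μg/ml final, 1% DMSO, were inoculated at ~5.0×10^5 cfu/ml in the strain's test medium and kept 20 h at 37 °C in ambient atmosphere. Colonies were grown on MHA, with S. pneumoniae on blood agar under 5% CO2.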

[2] = system: Escherichia coli ATCC 25922; test: Broth microdilution MIC, E. coli ATCC 25922 (MHIIB w & w/o 4 mM EDTA); conditions: for MIC: Escherichia coli, read-out: MIC E. coli ATCC 25922; for MIC E. coli ATCC 25922 + 4 mM EDTA: with 4 mM EDTA
Procedure, shortened: as §1

[3] = system: Enterococcus faecalis ATCC 29212; test: Broth microdilution MIC, E. faecalis ATCC 29212; conditions: read-out: MIC E. faecalis ATCC 29212
Procedure, shortened: as §1

[4] = system: Staphylococcus aureus ATCC 29213 (MSSA); test: Broth microdilution MIC, S. aureus ATCC 29213 (MSSA); conditions: read-out: MIC S. aureus ATCC 29213 (MSSA)
Procedure, shortened: as §1

[5] = system: Enterococcus faecium ATCC 700221 (VRE); test: Broth microdilution MIC, E. faecium ATCC 700221 (VRE); set-up: MIC E. faecium ATCC 700221 (VRE): unit: ug/mL; conditions: broth microdilution, 37° C., 20 hours; for MIC: Enterococcus faecium, read-out: MIC E. faecium ATCC 700221 (VRE)
Procedure, shortened: as §1

[6] = system: Bacillus subtilis ATCC 6633; test: Broth microdilution MIC, B. subtilis ATCC 6633; conditions: read-out: MIC B. subtilis ATCC 6633
Procedure, shortened: as §1

[7] = system: Streptococcus pneumoniae ATCC 49619; test: Broth microdilution MIC, S. pneumoniae ATCC 49619; conditions: read-out: MIC S. pneumoniae ATCC 49619
Procedure, shortened: as §1

[8] = ATCC25922, without EDTA, broth microdilution, 37° C., 20 hours
[9] = broth microdilution, 37° C., 20 hours
[10] = ATCC29212, broth microdilution, 37° C., 20 hours
[11] = ATCC6633, broth microdilution, 37° C., 20 hours
[12] = ATCC49619, broth microdilution, 37° C., 20 hours

Structure (SMILES): Cl.O=C(O)C1CC(n2ncc3nc(NCc4ccc(Cl)c(Cl)c4)[nH]c(=O)c32)CN1C(=O)c1ccncc1 (stereo not drawn) [Compound 150, 4-(5-((3,4-dichlorobenzyl)amino)-7-oxo-6,7-dihydro-1H-pyrazolo[4,3-d]pyrimidin-1-yl)-1-isonicotinoylpyrrolidine-2-carboxylic acid hydrochloride]
- MIC [1]: > 64 µg/mL
- MIC [2, 8]: > 64 µg/mL
- MIC E. coli ATCC 25922 + 4 mM EDTA [2, 9]: >64 µg/mL
- MIC [3, 10]: > 64 µg/mL
- MIC [4, 9]: > 64 µg/mL
- MIC [5]: > 64 µg/mL
- MIC [6, 11]: > 64 µg/mL
- MIC [7, 12]: > 64 µg/mL

Structure (SMILES): Cl.O=C(O)C1CC(n2ncc3nc(NCc4ccc(Cl)c(Cl)c4)[nH]c(=O)c32)CN1 (stereo not drawn) [Compound 151, 4-(5-((3,4-dichlorobenzyl)amino)-7-oxo-6,7-dihydro-1H-pyrazolo[4,3-d]pyrimidin-1-yl)pyrrolidine-2-carboxylic acid hydrochloride]
- MIC [1]: > 64 µg/mL
- MIC [2, 8]: > 64 µg/mL
- MIC E. coli ATCC 25922 + 4 mM EDTA [2, 9]: >64 µg/mL
- MIC [3, 10]: > 64 µg/mL
- MIC [4, 9]: > 64 µg/mL
- MIC [5]: > 64 µg/mL
- MIC [6, 11]: > 64 µg/mL
- MIC [7, 12]: 64 µg/mL

Structure (SMILES): O=c1[nH]c(NCc2ccc(Cl)c(Cl)c2)nc2cnn(C3CCNCC3)c12 [Compound 152, 5-((3,4-dichlorobenzyl)amino)-1-(piperidin-4-yl)-1H-pyrazolo[4,3-d]pyrimidin-7(6H)-one]
- MIC [1]: 16 µg/mL (≈ 40.7 µM)
- MIC [2, 8]: > 64 µg/mL
- MIC E. coli ATCC 25922 + 4 mM EDTA [2, 9]: 32 µg/mL
- MIC [3, 10]: 16 µg/mL (≈ 40.7 µM)
- MIC [4, 9]: 16 µg/mL (≈ 40.7 µM)
- MIC [5]: 8 µg/mL (≈ 20.3 µM)
- MIC [6, 11]: 4 µg/mL (≈ 10.2 µM)
- MIC [7, 12]: 2 µg/mL (≈ 5.09 µM)

Structure (SMILES): CC(C)(C)OC(=O)N1CCC(n2ncc3nc(NCc4ccc(Cl)c(Cl)c4)[nH]c(=O)c32)CC1 [Compound 153, Tert-butyl 4-(5-((3,4-dichlorobenzyl)amino)-7-oxo-6,7-dihydro-1H-pyrazolo[4,3-d]pyrimidin-1-yl)piperidine-1-carboxylate]
- MIC [1]: 4 µg/mL (≈ 8.11 µM)
- MIC [2, 8]: > 64 µg/mL
- MIC [3, 10]: 4 µg/mL (≈ 8.11 µM)
- MIC [4, 9]: 8 µg/mL (≈ 16.2 µM)
- MIC [5]: 2 µg/mL (≈ 4.05 µM)
- MIC [6, 11]: 2 µg/mL (≈ 4.05 µM)
- MIC [7, 12]: 16 µg/mL (≈ 32.4 µM)

Structure (SMILES): Cl.O=c1[nH]c(NCc2ccc(Cl)c(Cl)c2)nc2cnn(CC3CCCNC3)c12 (stereo not drawn) [Compound 154, 5-((3,4-dichlorobenzyl)amino)-1-(piperidin-3-ylmethyl)-1H-pyrazolo[4,3-d]pyrimidin-7(6H)-one hydrochloride]
- MIC [1]: 32 µg/mL
- MIC [2, 8]: > 64 µg/mL
- MIC E. coli ATCC 25922 + 4 mM EDTA [2, 9]: 32 µg/mL
- MIC [3, 10]: 32 µg/mL
- MIC [4, 9]: 32 µg/mL
- MIC [5]: 32 µg/mL
- MIC [6, 11]: 8 µg/mL
- MIC [7, 12]: 4 µg/mL

Structure (SMILES): Cl.O=c1[nH]c(NCc2ccc(Cl)c(Cl)c2)nc2cnn(CC3CCNC3)c12 (stereo not drawn) [Compound 155, 5-((3,4-dichlorobenzyl)amino)-1-(pyrrolidin-3-ylmethyl)-1H-pyrazolo[4,3-d]pyrimidin-7(6H)-one hydrochloride]
- MIC [1]: 64 µg/mL
- MIC [2, 8]: > 64 µg/mL
- MIC E. coli ATCC 25922 + 4 mM EDTA [2, 9]: >64 µg/mL
- MIC [3, 10]: 64 µg/mL
- MIC [4, 9]: 32 µg/mL
- MIC [5]: 32 µg/mL
- MIC [6, 11]: 4 µg/mL
- MIC [7, 12]: 8 µg/mL

Structure (SMILES): Cl.O=c1[nH]c(NCc2ccc(Cl)c(Cl)c2)nc2cnn(C3CCN(S(=O)(=O)c4cccnc4)CC3)c12 [Compound 156, 5-((3,4-dichlorobenzyl)amino)-1-(1-(pyridin-3-ylsulfonyl)piperidin-4-yl)-1H-pyrazolo[4,3-d]pyrimidin-7(6H)-one hydrochloride]
- MIC [1]: 2 µg/mL
- MIC [2, 8]: > 64 µg/mL
- MIC E. coli ATCC 25922 + 4 mM EDTA [2, 9]: >64 µg/mL
- MIC [3, 10]: > 64 µg/mL
- MIC [4, 9]: 2 µg/mL
- MIC [5]: 1 µg/mL
- MIC [6, 11]: 1 µg/mL
- MIC [7, 12]: 4 µg/mL

Structure (SMILES): COCCN1CCC(n2ncc3nc(NCc4ccc(Cl)c(Cl)c4)[nH]c(=O)c32)CC1.Cl [Compound 157, 5-((3,4-dichlorobenzyl)amino)-1-(1-(2-methoxyethyl)piperidin-4-yl)-1H-pyrazolo[4,3-d]pyrimidin-7(6H)-one hydrochloride]
- MIC [1]: 4 µg/mL
- MIC [2, 8]: > 64 µg/mL
- MIC E. coli ATCC 25922 + 4 mM EDTA [2, 9]: 64 µg/mL
- MIC [3, 10]: 8 µg/mL
- MIC [4, 9]: 8 µg/mL
- MIC [5]: 2 µg/mL
- MIC [6, 11]: 2 µg/mL
- MIC [7, 12]: 4 µg/mL

Structure (SMILES): O=C(Cn1ncc2nc(NCc3ccc(Cl)c(Cl)c3)[nH]c(=O)c21)N1CCOCC1 [Compound 158, 5-((3,4-dichlorobenzyl)amino)-1-(2-morpholino-2-oxoethyl)-1H-pyrazolo[4,3-d]pyrimidin-7(6H)-one]
- MIC [1]: 32 µg/mL (≈ 73.2 µM)
- MIC [2, 8]: > 64 µg/mL
- MIC E. coli ATCC 25922 + 4 mM EDTA [2, 9]: >64 µg/mL
- MIC [3, 10]: 16 µg/mL (≈ 36.6 µM)
- MIC [4, 9]: 16 µg/mL (≈ 36.6 µM)
- MIC [5]: 8 µg/mL (≈ 18.3 µM)
- MIC [6, 11]: 8 µg/mL (≈ 18.3 µM)
- MIC [7, 12]: 4 µg/mL (≈ 9.15 µM)

Structure (SMILES): CN1CC(Cn2ncc3nc(NCc4ccc(Cl)c(Cl)c4)[nH]c(=O)c32)CC1=O (stereo not drawn) [Compound 159, 5-((3,4-dichlorobenzyl)amino)-1-((1-methyl-5-oxopyrrolidin-3-yl)methyl)-1H-pyrazolo[4,3-d]pyrimidin-7(6H)-one]
- MIC [1]: 8 µg/mL (≈ 19 µM)
- MIC [2, 8]: > 64 µg/mL
- MIC E. coli ATCC 25922 + 4 mM EDTA [2, 9]: >64 µg/mL
- MIC [3, 10]: 8 µg/mL (≈ 19 µM)
- MIC [4, 9]: 8 µg/mL (≈ 19 µM)
- MIC [5]: 2 µg/mL (≈ 4.75 µM)
- MIC [6, 11]: 2 µg/mL (≈ 4.75 µM)
- MIC [7, 12]: 2 µg/mL (≈ 4.75 µM)

Structure (SMILES): Cl.O=c1[nH]c(NCc2ccc(Cl)c(Cl)c2)nc2cnn(CCOCCN3CCOCC3)c12 [Compound 160, 5-((3,4-dichlorobenzyl)amino)-1-(2-(2-morpholinoethoxy)ethyl)-1H-pyrazolo[4,3-d]pyrimidin-7(6H)-one hydrochloride]
- MIC [1]: 16 µg/mL
- MIC [2, 8]: > 64 µg/mL
- MIC E. coli ATCC 25922 + 4 mM EDTA [2, 9]: 64 µg/mL
- MIC [3, 10]: 16 µg/mL
- MIC [4, 9]: 16 µg/mL
- MIC [5]: 8 µg/mL
- MIC [6, 11]: 4 µg/mL
- MIC [7, 12]: 4 µg/mL

Structure (SMILES): Cl.Cl.O=c1[nH]c(NCc2ccc(Cl)c(Cl)c2)nc2cnn(C3CCN(c4ccccn4)CC3)c12 [Compound 161, 5-((3,4-dichlorobenzyl)amino)-1-(1-(pyridin-2-yl)piperidin-4-yl)-1H-pyrazolo[4,3-d]pyrimidin-7(6H)-one dihydrochloride]
- MIC [1]: 4 µg/mL
- MIC [2, 8]: > 64 µg/mL
- MIC E. coli ATCC 25922 + 4 mM EDTA [2, 9]: >64 µg/mL
- MIC [3, 10]: > 64 µg/mL
- MIC [4, 9]: 8 µg/mL
- MIC [5]: 2 µg/mL
- MIC [6, 11]: 2 µg/mL
- MIC [7, 12]: 16 µg/mL

Structure (SMILES): O=c1[nH]c(NCc2ccc(Cl)c(Cl)c2)nc2cnn(C3CCN(c4ccncc4)CC3)c12 [Compound 162, 5-((3,4-dichlorobenzyl)amino)-1-(1-(pyridin-4-yl)piperidin-4-yl)-1H-pyrazolo[4,3-d]pyrimidin-7(6H)-one dihydrochloride]
- MIC NRS 384 (MRSA) [1]: 2/4
- MIC ([2]; ATCC25922, 20 h): > 64 µg/mL
- MIC E. coli ATCC 25922 + 4 mM EDTA [2, 9]: 8 µg/mL
- MIC ([3]; ATCC29212, 20 h): 4 µg/mL
- MIC ([4]; 20 h): 4 µg/mL
- MIC E. faecium ATCC 700221 (VRE) [5]: 2/2
- MIC ([6]; ATCC6633, 20 h): 1 µg/mL
- MIC ([7]; ATCC49619, 20 h): 2 µg/mL

Structure (SMILES): O=c1[nH]c(NCc2ccc(Cl)c(Cl)c2)nc2cnn(C3CCN(c4cccnc4)CC3)c12 [Compound 163, 5-((3,4-dichlorobenzyl)amino)-1-(1-(pyridin-3-yl)piperidin-4-yl)-1H-pyrazolo[4,3-d]pyrimidin-7(6H)-one dihydrochloride]
- MIC NRS 384 (MRSA) [1]: 2/2
- MIC ([2]; ATCC25922, 20 h): > 64 µg/mL
- MIC E. coli ATCC 25922 + 4 mM EDTA [2, 9]: >64 µg/mL
- MIC ([3]; ATCC29212, 20 h): > 64 µg/mL
- MIC ([4]; 20 h): 2 µg/mL
- MIC E. faecium ATCC 700221 (VRE) [5]: 2/2
- MIC ([6]; ATCC6633, 20 h): 0.5 µg/mL
- MIC ([7]; ATCC49619, 20 h): 8 µg/mL
